Experimental data from the NIST ThermoML archive (doi:10.1021/acs.jced.6b00587).
Numbers after ± are expanded uncertainties.

Conditions: Liquid, Ebulliometric method (Recirculating still)

CCCCCCC [heptane]
Conditions | vapor or sublimation pressure [kPa]
331.39 K | 26.15 ± 0.77
335.45 K | 30.59 ± 0.78
341.94 K | 38.89 ± 0.79
347.16 K | 46.8 ± 0.81
349.68 K | 50.97 ± 0.83
352.58 K | 56.2 ± 0.84
354.63 K | 60 ± 1
356.78 K | 64.6 ± 0.89
359.38 K | 70.24 ± 0.9
362.11 K | 76.47 ± 0.92
364.95 K | 83.45 ± 0.94
366.87 K | 88.4 ± 1
371.28 K | 101.3 ± 1

CCCCOCC [butyl ethyl ether]
Conditions | vapor or sublimation pressure [kPa]
336.22 K | 38.6 ± 0.81
340.35 K | 44.96 ± 0.82
344.21 K | 51.67 ± 0.83
346.8 K | 56.24 ± 0.84
348.84 K | 60 ± 0.87
350.44 K | 63.63 ± 0.9
354.01 K | 71.58 ± 0.91
357.31 K | 79.6 ± 0.95
361.44 K | 90.59 ± 0.97
363.47 K | 96.36 ± 0.99
365.25 K | 101.3 ± 0.99

CCCOCCC [dipropyl ether]
Conditions | vapor or sublimation pressure [kPa]
326.73 K | 29.35 ± 0.78
332.57 K | 36.71 ± 0.79
336.55 K | 42.54 ± 0.81
341.15 K | 49.98 ± 0.83
345.34 K | 57.75 ± 0.85
346.55 K | 60 ± 1
346.63 K | 60 ± 1
347.55 K | 62.3 ± 0.94
352.11 K | 72.36 ± 0.91
354.82 K | 78.97 ± 0.94
356.85 K | 84.25 ± 0.96
358.73 K | 89.3 ± 0.99
361.18 K | 96.32 ± 1
362.87 K | 101.3 ± 1
